US9745328B2, “Flap modulators” (JANSSEN PHARMACEUTICA NV, priority 2013, dated 2017)
Structures can show the parent of a compound that is named as a salt.

molecular target: human FLAP (Homo sapiens (Human), UniProt P20292); experiment: FLAP binding assay (HTRF format); conditions: Table 6 (additional runs), human FLAP wild type
Description: The ability of the compounds of the present invention to treat a FLAP-mediated disease and/or disorder, or associated symptoms or complications thereof, was determined using the following procedures. Binding assay data represent the average value obtained from two different assay plates, with samples run in duplicate on each plate. Human whole blood assay data represent a single replicate on an assay plate using whole blood from at least one healthy donor.
Data are expressed as a HTRF ratio.

Chain of human FLAP (P20292 whole entry): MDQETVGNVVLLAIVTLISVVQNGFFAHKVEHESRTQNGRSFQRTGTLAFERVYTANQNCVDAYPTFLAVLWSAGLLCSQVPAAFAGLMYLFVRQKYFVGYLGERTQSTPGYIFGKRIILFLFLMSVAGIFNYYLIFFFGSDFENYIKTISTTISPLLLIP

Ki [nM] | SMILES
1.2 | O=S(=O)(c1ccccc1-c1ccc(-c2cnc3[nH]ccc3n2)c(F)c1)N1CCCCC1 [Example 374, 2-[3-Fluoro-2′-(piperidin-1-ylsulfonyl)biphenyl-4-yl)-5H-pyrrolo[2,3-b]pyrazine]
4.5 | Nc1ccc(-c2ccc(-c3ccccc3S(=O)(=O)NC3CCCCC3)cc2F)cn1 [Example 346, 4′-(6-Aminopyridin-3-yl)-N-cyclohexyl-3′-fluoro-[1,1′-biphenyl]-2-sulfonamide]
60.8 | Nc1ncc(-c2ccc(-c3ccccc3S(=O)(=O)N3CCN(C4CC4)CC3)cc2F)cn1 [Example 281, 5-{2′-[(4-Cyclopropylpiperazin-1-yl)sulfonyl]-3-fluorobiphenyl-4-yl}pyrimidin-2-amine trifluoroacetic acid salt]
1.5 | CC(C)[C@H](CO)NS(=O)(=O)c1ccccc1-c1ccc(-c2cnc(N)cn2)c(F)c1 [Example 109]
8.5 | Nc1cnc(-c2ccc(-c3ccccc3S(=O)(=O)N3C[C@@H]4C(N)[C@@H]4C3)cc2F)cn1 (stereo partly drawn) [Example 143, (1R,5S)-3-((4′-(5-aminopyrazin-2-yl)-3′-fluoro-[1,1′-biphenyl]-2-yl)sulfonyl)-3-azabicyclo[3.1.0]hexan-6-amine]
1070 | Nc1cnc(-c2ccc(-c3ccccc3CS(=O)(=O)N3CCC(N)CC3)cc2F)cn1 [Example 229, 5-(2′-{[(4-Aminopiperidin.-1-yl)sulfonyl]methyl}-3-fluorobiphenyl-4-yl)pyrazin-2-amine hydrochloride]
0.7 | Nc1cnc(-c2ccc(-c3ccccc3S(=O)(=O)N[C@@H](CO)c3ccccc3)cc2F)cn1 [Example 82, 4′-(5-Aminopyrazin-2-yl)-3′-fluoro-N-[(1R)-2-hydroxy-1-phenylethyl]biphenyl-2-sulfonamide]
6.2 | Nc1cnc(-c2ccc(-c3ccccc3S(=O)(=O)NCCO)cc2F)cn1 [Example 88, 4′-(5-Aminopyrazin-2-yl)-3′-fluoro-N-(2-hydroxyethyl)biphenyl-2-sulfonamide]
2.2 | Nc1cnc(-c2ccc(-c3ccccc3S(=O)(=O)N[C@@H](c3ccccc3)C(F)(F)F)cc2F)cn1 [Example 19]
3.3 | Nc1ncc(-c2ccc(-c3ccccc3S(=O)(=O)Nc3ccccc3)cc2F)cn1 [Example 285, 4′-(2-Aminopyrimidin-5-yl)-3′-fluoro-N-phenylbiphenyl-2-sulfonamide trifluoroacetic acid salt]
0.8 | Nc1cnc(-c2ccc(-c3ccccc3S(=O)(=O)N3CCc4[nH]ncc4C3)cc2F)cn1 [Example 128, 5-[3-Fluoro-2′-(1,4,6,7-tetrahydro-5H-pyrazolo[4,3-c]pyridin-5-ylsulfonyl)biphenyl-4-yl]pyrazin-2-amine]
30.9 | CC(C)CS(=O)(=O)c1ccccc1-c1ccc(-c2cnc(N)cn2)c(F)c1 [Example 193, 5-{3-Fluoro-2′-[(2-methylpropyl)sulfonyyl]iphenyl-4-yl}pyrazin-2-amine]
26.3 | CCN1CCCC[C@@H](NS(=O)(=O)c2ccccc2-c2ccc(-c3cnc(N)cn3)c(F)c2)C1=O [Example 27]
1.1 | Nc1cnc(-c2ccc(-c3ccccc3S(=O)(=O)N3CCC(O)(C(F)(F)F)CC3)cc2F)cn1 [Example 55, 1-{[4′-(5-Aminopyrazin-2-yl)-3′-fluorobiphenyl-2-yl]sulfonyl}-4-(trifluoromethyl)piperidin-4-ol]
28.8 | Nc1cnc(-c2ccc(-c3ccccc3NS(=O)(=O)C3CC3)cc2F)cn1 [Example 38, N-(4′-(5-aminopyrazin-2-yl)-3′-fluoro-[1,1′-biphenyl]-2-yl)cyclopropanesulfonamide]
4.5 | C[C@H](NS(=O)(=O)c1ccccc1-c1ccc(-c2cnc(N)nc2)c(F)c1)C(=O)OC(C)(C)C [Example 307, tert-Butyl N-{[4′-(2-aminopyrimidin-5-yl)-3′-fluorobiphenyl-2-yl]sulfonyl}-L-alaninate]
0.6 | CC(CO)(CO)NS(=O)(=O)c1ccccc1-c1ccc(-c2cnc(N)cn2)c(F)c1 [Example 147, 4′-(5-Aminopyrazin-2-yl)-3′-fluora-N-[2-hydroxy-1-(hydroxymethyl)-1-methylethyl]piphenyl-2-sulfonamide]
2.9 | N#CCCNS(=O)(=O)c1ccccc1-c1ccc(-c2cnc(N)cn2)c(F)c1 [Example 169, 4′-(5-Aminopyrazin-2-yl)-N-(2-cyanoethyl)-3′-fluorobiphenyl-2-sulfanamide]
1.8 | CC(C)(C)NS(=O)(=O)c1ccccc1-c1ccc(-c2ccc(N)nc2)c(F)c1 [Example 342]
0.9 | Nc1cnc(-c2ccc(-c3ccccc3S(=O)(=O)Nc3ccccc3)cc2F)cn1 [Example 26, 4′-(5-Aminopyrazin-2-yl)-3′-fluoro-N-phenylbiphenyl-2-sulfonamide]
10.7 | CC(=O)NC1CCN(S(=O)(=O)c2ccccc2-c2ccc(-c3cnc(N)cn3)c(F)c2)CC1 [Example 75, N-(1-{[4′-(5-Aminopyrazin-2′yl)-3′-fluorobiphenyl-2-yl]sulfonyl}piperidin-4-yl)acetamide]

Second part, the molecule before the results:

SMILES | Ki [nM]
Nc1cnc(-c2ccc(-c3ccccc3N)cc2F)cn1 [Example 178, 5-(2′-Amino-3-fluorobiphenyl-4-yl)pyrazin-2-amine] | ~1320
CNS(=O)(=O)c1cc(C(F)(F)F)ccc1-c1ccc(-c2cnc(N)cn2)c(F)c1 [Example 208, 4′-(5-Aminopyrazin-2-yl)-3′-fluoro-N-methyl-4-(trifluoromethyl)biphenyl-2-sulfonamide] | 0.4
CNS(=O)(=O)c1cc(C(F)(F)F)ccc1-c1ccc(-c2cnc(N)nc2)c(F)c1 [Example 325, 4′-(2-aminopyrimidin-5-yl)-3′-fluoro-N-methyl-4-(trifluoromethyl)biphenyl-2-sulfonamide] | 4.7
CC(C)(C)OC(=O)NCCNS(=O)(=O)c1ccccc1-c1ccc(-c2cnc(N)cn2)c(F)c1 [Example 151] | 1.3
CCNS(=O)(=O)c1cc(C(F)(F)F)ccc1-c1ccc(-c2cnc(N)cn2)c(F)c1 [Example 211, 4′-(5-Aminopyrazin-2-yl)-N-ethyl-3′-fluoro-4-(trifluoromethyl)biphenyl-2-sulfonamide] | 0.5
Nc1cnc(-c2ccc(-c3ccccc3SC(F)(F)F)cc2F)cn1 [Example 189, 5-{3-Fluoro-2′-[(trifluoromethyl)-sulfanyl]biphenyl-4-yl}pyrazin-2-amine] | 63.2
Nc1cnc(-c2ccc(-c3ccccc3S(=O)(=O)N3CCN(c4ncccn4)CC3)cc2F)cn1 [Example 177] | 0.5
Nc1cnc(-c2ccc(-c3ccccc3SCCNC(=O)c3ccccc3)cc2F)cn1 [Example 204, N-(2-{[4′-(5-Aminopyrazin-2-yl)-3′-fluorobiphenyl-2-yl]sulfanyl}ethyl)benzamide] | 4.5
CC(C)(C)NS(=O)(=O)c1ccccc1-c1ccc(-c2cnc3[nH]ccc3n2)c(F)c1 [Example 371, N-tert-Butyl-3′-fluoro-4′-(5H-pyrrolo[2,3-b]pyrazin-2-yl)biphenyl-2-sulfonamide] | 0.7
Nc1ncc(-c2ccc(-c3ccccc3Sc3ccnc(N)n3)cc2F)cn1 [Example 335, 4-{[4′-(2-Aminopyrimidin-5-yl)-3′-fluorobiphenyl-2-yl]sulfanyl}pyrimidin-2-amine formate salt] | 1.9
Nc1cnc(-c2ccc(-c3ccccc3Sc3ncncc3N)cc2F)cn1 [Example 217, 4-{[4′-(5-Aminopyrazin-2-yl)-3′-fluorobiphenyl-2-yl]sulfanyl}pyrimidin-5-amine hydrochloride] | 1.2

same assay, conditions: human FLAP wild type, Table 6 (additional runs)

Ki [nM] | SMILES
2.4 | CC(C)(C)NS(=O)(=O)c1ccccc1-c1ccc(-c2cnc(N)c(Cl)c2)c(F)c1 [Example 451, 4′-(6-Amino-5-chloropyridin-3-yl)-N-tert-butyl-3′-fluorobiphenyl-2-sulfonamide trifluoroacetic acid salt]
~354 | CC(=O)c1ccccc1-c1ccc(-c2cnc(N)cn2)c(F)c1 [Example 483, 1-[4′-(5-Aminopyrazin-2-yl)-3′-fluorobiphenyl-2-yl]ethanone]

Continued, molecule first:

SMILES | Ki [nM]
Nc1cnc(Oc2ccccc2-c2ccc(-c3cnc(N)cn3)c(F)c2)nc1 [Example 614, 2-{[4′-(5-Aminopyrazin-2-yl)-3′-fluorobiphenyl-2-yl]oxy}pyrimidin-5-amine] | 9.8
CC(C)(C)NS(=O)(=O)c1ccccc1-c1ccc(-c2ccc3[nH]ccc3c2)c(F)c1 [Example 421, N-tert-Butyl-3′-fluoro-4′-(1H-indol-5-yl)biphenyl-2-sulfonamide] | 28.3
C[C@H]1CN(C(=O)c2ccccc2-c2ccc(-c3cnc(N)nc3)c(F)c2)CCO1 [Example 777, 5-(3-Fluoro-2′-{[(2S)-2-methylmorpholin-4-yl]carbonyl}biphenyl-4-yl)pyrimidin-2-amine] | 1620
CC(C)(C)NS(=O)(=O)c1ccccc1-c1ccc(-c2cnc(N)c(Br)n2)c(F)c1 [Example 442, 4′-(5-Amino-6-bromopyrazin-2-yl)-N-tert-butyl-3′-fluorobiphenyl-2-sulfonamide] | 0.9
Cc1nc(-c2ccc(-c3ccccc3S(N)(=O)=O)cc2F)cnc1N [Example 446, 4′-(5-Amino-6-methylpyrazin-2-yl)-3′-fluorobiphenyl-2-sulfonamide] | 304
CC(C)(C)NS(=O)(=O)c1ccccc1-c1ccc(-c2cnc(N)cn2)cc1 [Example 571, 4′-(5-Aminopyrazin-2-yl)-N-tert-butylbiphenyl-2-sulfonamide] | 1.7
Nc1cnc(-c2ccc(-c3ccccc3Cl)cc2F)cn1 [Example 469, 5-(2′-Chloro-3-fluorobiphenyl-4-yl)pyrazin-2-amine] | 179
CC(C)(C)NS(=O)(=O)c1ccccc1-c1ccc(-c2cnc(N)cn2)c(F)c1F [Example 462, 4′-(5-Aminopyrazin-2-yl)-N-tert-butyl-2′,3′-difluorobipnenyl-2-sulfonamide] | 2.3

same assay, conditions: human FLAP wild type, a calculated value of 0.000 indicates Ki less than 1 nM

Ki [nM] | SMILES
< 1 | CNS(=O)(=O)c1cc(C(F)(F)F)ccc1-c1ccc(-c2cnc(N)cn2)c(F)c1 [Example 208, 4′-(5-Aminopyrazin-2-yl)-3′-fluoro-N-methyl-4-(trifluoromethyl)biphenyl-2-sulfonamide]
< 1 | Nc1cnc(-c2ccc(-c3ccccc3S(=O)(=O)N3CCN(c4ncccn4)CC3)cc2F)cn1 [Example 177]
